The target in the assay is T1, HCV-NS5b (Hepatitis C virus genotype 1b, UniProt Q9WMX2).
T1 construct: (His)6 (C); made in house; host or cells: XL-1 cells (E. coli), IPTG-inducible plasmid
The experiment in a line: HCV-NS5b enzyme assay using homopolymer substrate. Type of assay: biochemical. From the text: The coding sequence of NS5b protein was cloned by PCR from pFKI389luc/NS3-3′/ET as described by Lohmann, V., et al. (1999) Science 285, 110-113 using the primers shown on page 266 of WO 2005/012288
The cloned fragment is missing the C terminus 21 amino acid residues. The cloned fragment was inserted into an IPTG-inducible (isopropyl-β-D-thiogalactopyranoside) expression plasmid that provides an epitope tag (His)6 at the carboxy terminus of the protein.
The recombinant enzyme was expressed in XL-1 cells and after induction of expression, the protein was purified using affinity chromatography on a nickel-NTA (nitrilotriacetic acid) column. Storage condition was 10 mM Tris-HCl pH 7.5, 50 mM NaCl, 0.1 mM EDTA (ethylenediaminetetraacetic acid), 1 mM DTT (dithiothreotol), 20% glycerol at −20° C.
The polymerase activity was assayed by measuring incorporation of radiolabeled UTP into a RNA product using a biotinylated, homopolymeric template. The template was formed by annealing adenosine homopolymer to uridine 20-mer capped with a 5′-biotin group (biotin-U^20) in the ratio of 1:4. Typically, the assay mixture (50 μL) contained 25 mM Tris-HCl (pH 7.5), 40 mM KCl, 0.3 mM MgCl2, 0.05 mM EDTA, 0.2 unit/μL Superase RNAse Inhibitor, 5 mM DTT, 30 μM UTP (Uridine triphosphate), including [^3H]-UTP (uridine triphosphate) at 0.4 μCi/μL with final concentration of 1 μM, and 50 nM of homopolymeric template. Test compounds were initially dissolved in 100% DMSO and further diluted in aqueous buffer containing 5% DMSO. Typically, compounds were tested at concentrations between 2 nM and 50 μM. Reactions were started with addition of enzyme and allowed to continue at 30° C. for 90 minutes. Reactions were quenched with 8 μL of 100 mM EDTA and reaction mixtures (30 μL) were transferred to streptavidin-coated scintillation proximity microtiter plates (FlashPlates) and incubated at room temperature overnight. Incorporation of radioactivity was determined by scintillation counting.
Inhibitor IC50 values were determined by adding test compound as ten point, two-fold serial dilutions in 100% DMSO with a final reaction concentration of 5%. IC50 was calculated by plotting the % inhibition against compound concentration and fitting the data to a constrained four parameter sigmoidal curve, equivalent to the “four parameter logistic equation”:
Where Bottom is the minimum Y value, Top is the maximum Y value, and Hillslope is the slope of the linear portion of the semi-log curve. Top and Bottom were constrained to values of 0% and 100%, respectively. These analyses were performed using Graphpad Prism v.4.0 (Graphpad Software, Inc.) in conjunction with DS Accord for EXCEL 6.0 (Accelrys, Microsoft Corp.).
The table below lists the IC50 values of compounds determined using the homopolymer substrates.

Setting [1] is: homopolymer substrate, [3H]-UTP incorporation, 30° C., 90 minutes, read-out: IC50.

Molecules are shown by their SMILES. pIC50: −log10 of the molar value. Like-named read-outs stand apart in the source and are kept apart here.

In the case of `O=C(O)c1ccc2c(C3CCCCC3)c3n(c2c1)CC(CO)Cn1ccc2cccc-3c21` (racemic) [Compound 377], under setting [1], the pIC50 (usually the IC50 on a negative log10 scale, so that one unit is a factor of ten) was 6.55.

With `O=C(O)c1ccc2c(C3CCCCC3)c3n(c2c1)CCCCn1cc(CN2CCCCC2)c2cccc-3c21` [Compound 105], the negative-log IC50 (pIC50) under setting [1] is 6.88.

For `O=C(O)c1ccc2c(C3CCCCC3)c3n(c2c1)CCCn1cc(CN2CCOCC2)c2cccc-3c21` [Compound 107], the pIC50 under setting [1] was 7.72.

With `CN(C)Cc1cn2c3c(cccc13)-c1c(C3CCCCC3)c3ccc(C(=O)O)cc3n1CC2` [Compound 108], under setting [1], the negative logarithm of the IC50 (pIC50) was 7.08.

As to `CC(C)NCc1cn2c3c(cccc13)-c1c(C3CCCCC3)c3ccc(C(=O)O)cc3n1CCC2` [Compound 110], under setting [1], the negative logarithm of the IC50 (pIC50) is 7.02.

As to `CN(C)Cc1cn2c3c(cccc13)-c1c(C3CCCCC3)c3ccc(C(=O)O)cc3n1CCC2` [Compound 111], under setting [1], the pIC50 is 6.97.

With `CN(C)Cc1cn2c3c(cccc13)-c1c(C3CCCCC3)c3ccc(C(=O)O)cc3n1CCCC2` [Compound 112], the pIC50 under setting [1] is 6.96.

`O=C(O)c1ccc2c(C3CCCCC3)c3n(c2c1)CCCn1cc(CN2CCC2)c2cccc-3c21` [Compound 113]: under setting [1], the pIC50 was 7.08.

Consider `O=C(O)c1ccc2c(C3CCCCC3)c3n(c2c1)CCCn1cc(C(=O)C(=O)N2CCCCC2)c2cccc-3c21` [Compound 114], for which the negative logarithm of the IC50 (pIC50) is 7.05.

Turning to `COC1CCN(Cc2cn3c4c(cccc24)-c2c(C4CCCCC4)c4ccc(C(=O)O)cc4n2CCC3)CC1` [Compound 115], the pIC50 under setting [1] is 7.06.

Turning to `O=C(O)c1ccc2c(C3CCCCC3)c3n(c2c1)CCCn1cc(CN2CCCCO2)c2cccc-3c21` [Compound 116], under setting [1], the pIC50 is 6.86.

Turning to `CC1CCN(Cc2cn3c4c(cccc24)-c2c(C4CCCCC4)c4ccc(C(=O)O)cc4n2CCC3)CC1` [Compound 117], under setting [1], the negative-log IC50 (pIC50) is 6.97.

`O=C(O)c1ccc2c(C3CCCCC3)c3n(c2c1)CCn1cc(CN2CCCCC2)c2cccc-3c21` [Compound 118]: under setting [1], the negative logarithm of the IC50 (pIC50) is 7.32.

Consider `O=C(O)c1ccc2c(C3CCCCC3)c3n(c2c1)CCCn1cc(CN2CCCCC2)c2cccc-3c21` [Compound 119], for which the pIC50 under setting [1] was 6.94.

Turning to `CCN(CC)Cc1cn2c3c(cccc13)-c1c(C3CCCCC3)c3ccc(C(=O)O)cc3n1CCC2` [Compound 120], the pIC50 under setting [1] was 7.07.

`O=C(O)c1ccc2c(C3CCCCC3)c3n(c2c1)CCCn1cc(CN2CCCC2)c2cccc-3c21` [Compound 121]: the negative-log IC50 (pIC50) under setting [1] is 7.31.

Consider `O=C(O)c1ccc2c(C3CCCCC3)c3n(c2c1)CCn1cc(CN2CCOCC2)c2cccc-3c21` [Compound 122], for which the pIC50 under setting [1] was 7.29.

On to `CN1CCN(C(=O)C(=O)c2cn3c4c(cccc24)-c2c(C4CCCCC4)c4ccc(C(=O)O)cc4n2CCC3)CC1` [Compound 123], for which the negative logarithm of the IC50 (pIC50) was 6.81.

In the case of `COC1CCCN(Cc2cn3c4c(cccc24)-c2c(C4CCCCC4)c4ccc(C(=O)O)cc4n2CCC3)C1` (stereo not shown) [Compound 124], the negative-log IC50 (pIC50) under setting [1] is 6.94.

As for `CN1CCN(Cc2cn3c4c(cccc24)-c2c(C4CCCCC4)c4ccc(C(=O)O)cc4n2CCC3)CC1` [Compound 125], the pIC50 under setting [1] was 7.17.

Turning to `O=C(O)c1ccc2c(C3CCCCC3)c3n(c2c1)CCCn1cc(CN2CC[C@@H](F)C2)c2cccc-3c21` [Compound 126], the negative-log IC50 (pIC50) under setting [1] is 7.02.

In the case of `O=C(O)c1ccc2c(C3CCCCC3)c3n(c2c1)CCCn1cc(CN2CCC(F)(F)CC2)c2cccc-3c21` [Compound 127], under setting [1], the pIC50 is 6.54.

For `O=C(O)c1ccc2c(C3CCCCC3)c3n(c2c1)CCCn1cc(CN2CCSCC2)c2cccc-3c21` [Compound 128], the pIC50 under setting [1] was 7.00.

In the case of `CCN(C)Cc1cn2c3c(cccc13)-c1c(C3CCCCC3)c3ccc(C(=O)O)cc3n1CCC2` [Compound 129], the pIC50 under setting [1] is 7.02.

On to `CC1CCCN(Cc2cn3c4c(cccc24)-c2c(C4CCCCC4)c4ccc(C(=O)O)cc4n2CCC3)C1` (stereo not shown) [Compound 130], for which the pIC50 under setting [1] was 6.95.

As to `O=C(O)c1ccc2c(C3CCCCC3)c3n(c2c1)CCCn1cc(CNC2CC2)c2cccc-3c21` [Compound 131], the pIC50 under setting [1] is 6.68.

As for `CCC(CC)NCc1cn2c3c(cccc13)-c1c(C3CCCCC3)c3ccc(C(=O)O)cc3n1CCC2` [Compound 132], under setting [1], the pIC50 is 6.65.

Turning to `O=C(O)c1ccc2c(C3CCCCC3)c3n(c2c1)CCCn1cc(CCN2CCCCC2)c2cccc-3c21` [Compound 204], the negative-log IC50 (pIC50) under setting [1] was 6.93.

With `CN(C)CCc1cn2c3c(cccc13)-c1c(C3CCCCC3)c3ccc(C(=O)O)cc3n1CCC2` [Compound 214], the negative logarithm of the IC50 (pIC50) under setting [1] was 6.56.

On to `CC(C)NC1CCN2CCn3c(c(C4CCCCC4)c4ccc(C(=O)O)cc43)-c3cccc1c32` (stereo not shown) [Compound 276], for which, under setting [1], the pIC50 is 7.19.

As for `CCCNC1CCN2CCn3c(c(C4CCCCC4)c4ccc(C(=O)O)cc43)-c3cccc1c32` (stereo not shown) [Compound 277], the negative logarithm of the IC50 (pIC50) under setting [1] is 7.25.

In the case of `O=C(O)c1ccc2c(C3CCCCC3)c3n(c2c1)CCN1CCC(NC2CCOCC2)c2cccc-3c21` (stereo not shown) [Compound 282], the negative logarithm of the IC50 (pIC50) under setting [1] was 7.23.

With `CN(C)C1CCN2CCn3c(c(C4CCCCC4)c4ccc(C(=O)O)cc43)-c3cccc1c32` (stereo not shown) [Compound 285, 15-Cyclohexyl-4-(dimethylamino)-5,6,8,9-tetrahydro-4H-indolo[1′,2′:4,5][1,4]diazepino[6,7,1-ij]quinoline-12-carboxylic acid], the pIC50 under setting [1] is 7.10.

In the case of `CC1CN(Cc2cn3c4c(cccc24)-c2c(C4CCCCC4)c4ccc(C(=O)O)cc4n2CCC3)CC(C)O1` (stereo not shown) [Compound 330], under setting [1], the pIC50 is 6.95.

Turning to `CCN(C)Cc1cn2c3c(cccc13)-c1c(C3CCCCC3)c3ccc(C(=O)O)cc3n1CCC2` [Compound 337], under setting [1], the pIC50 was 5.89.

In the case of `C=C1Cn2cc(CN3CCCCC3)c3cccc(c32)-c2c(C3CCCCC3)c3ccc(C(=O)O)cc3n2C1` [Compound 341], the negative logarithm of the IC50 (pIC50) under setting [1] was 6.87.

As for `O=C(O)c1ccc2c(C3CCCCC3)c3n(c2c1)CCCn1ccc2c(F)ccc-3c21` [Compound 344], the pIC50 under setting [1] was 6.88.

Regarding `O=C(O)c1ccc2c(C3CCCCC3)c3n(c2c1)CCCn1cc(CN2CCCCC2)c2c(F)ccc-3c21` [Compound 345], the pIC50 under setting [1] is 6.90.

As to `CCN(CC)Cc1cn2c3c(ccc(F)c13)-c1c(C3CCCCC3)c3ccc(C(=O)O)cc3n1CCC2` [Compound 346], under setting [1], the pIC50 was 6.92.

Regarding `CCN(C)Cc1cn2c3c(ccc(F)c13)-c1c(C3CCCCC3)c3ccc(C(=O)O)cc3n1CCC2` [Compound 347], the pIC50 under setting [1] was 6.91.

Take `CN1CCN(Cc2cn3c4c(ccc(F)c24)-c2c(C4CCCCC4)c4ccc(C(=O)O)cc4n2CCC3)CC1` [Compound 348]: the pIC50 under setting [1] is 6.84.

As for `O=C(O)c1ccc2c(C3CCCCC3)c3n(c2c1)CCn1cc(CCN2CCCCC2)c2cccc-3c21` [Compound 349], the pIC50 under setting [1] was 7.01.

Take `CCN(CC)Cc1cn2c3c(cccc13)-c1c(C3CCCCC3)c3ccc(C(=O)O)cc3n1CC2` [Compound 350]: the pIC50 under setting [1] is 7.19.

In the case of `CCN(C)Cc1cn2c3c(cccc13)-c1c(C3CCCCC3)c3ccc(C(=O)O)cc3n1CC2` [Compound 351], the pIC50 under setting [1] was 7.25.

As for `O=C(O)c1ccc2c(C3CCCCC3)c3n(c2c1)CCCn1cc(CN2CCC(F)CC2)c2cccc-3c21` [Compound 352], the pIC50 under setting [1] is 7.05.

Consider `O=C(O)c1ccc2c(C3CCCCC3)c3n(c2c1)CCCn1cc(CN2CCCC(F)C2)c2cccc-3c21` (stereo not shown) [Compound 353], for which the pIC50 under setting [1] was 6.96.

For `O=C(O)c1ccc2c(C3CCCCC3)c3n(c2c1)CCCn1cc(CN2CC[C@H](F)C2)c2cccc-3c21` [Compound 354], under setting [1], the pIC50 is 6.96.

For `CCN1CCN(Cc2cn3c4c(cccc24)-c2c(C4CCCCC4)c4ccc(C(=O)O)cc4n2CCC3)CC1` [Compound 356], the pIC50 under setting [1] was 6.92.

Consider `CSCCNCc1cn2c3c(cccc13)-c1c(C3CCCCC3)c3ccc(C(=O)O)cc3n1CCC2` [Compound 358], for which the pIC50 under setting [1] was 6.82.

For `O=C(O)c1ccc2c(C3CCCCC3)c3n(c2c1)CCCn1cc(CN2CCCC(O)C2)c2cccc-3c21` (stereo not shown) [Compound 359], the pIC50 under setting [1] is 6.81.

`O=C(O)c1ccc2c(C3CCCCC3)c3n(c2c1)CCCn1cc(CNC2CCOCC2)c2cccc-3c21` [Compound 360]: the pIC50 under setting [1] was 6.83.

For `CCN(Cc1cn2c3c(cccc13)-c1c(C3CCCCC3)c3ccc(C(=O)O)cc3n1CCC2)C(C)C` [Compound 361], the pIC50 under setting [1] is 6.75.

The values above are taken from patent US20090197856A1, “ANTIVIRAL COMPOUNDS” (Genelabs Technologies, Inc., priority 2007, published 2009).
